Experimental data reported in article PMC10458458, “Characterization of Anticancer Effects of the Analogs of DJ4, a Novel Selective Inhibitor of ROCK and MRCK Kinases” (Pharmaceuticals, 2023).

Key:
A549 lung cancer cells = experiment: Cell cycle analysis (propidium iodide, flow cytometry); assay type: cell-based, human; details: A549, serum-starved, 24 h (vehicle 1%)
Method: Since DJ4 inhibits phosphorylation of MLC, we hypothesized that DJ4-treated cells are unable to complete cell division and arrest in G2/M phase of the cell cycle. To test this hypothesis, A549 lung cancer cells were synchronized in the G1 phase by serum-starvation for 24 h. After serum replenishment, cells were further treated with 2.5 µM, 5 µM, and 10 µM DJ-4 for 16-, 24-, and 48 h (Figure 3A). Before treatment with DJ4 (time zero), about 80% of cells were in the G1 phase, 20% in the G2/M phase, and essentially none in the S phase. In vehicle treated control cells, there were minimal cells in the G2/M phase at both 24 h (1%) and 48 h (8%). […] At 48 h, cells remained arrested in the G2/M phase, but also, there was an increase in the sub-G1 cell population indicating apoptotic cells.
Figure 3 DJ4 arrests A549 lung cancer cells in G2/M phase and induces apoptotic cell death in NSCLC and breast cancer cells. (A). A549 cells were serum-starved for 24 h and treated for 16 h, 24 h, and 48 h with indicated concentrations. Propidium iodide stained cells were analyzed for DNA content by flow cytometry. The cell cycle graphs indicate distribution of cells in the G1, S, and G2/M phases of cell cycle. Sub-G1 cell population indicates apoptotic cells. (B). Annexin V staining of A549 cells. The cells were treated with indicated concentrations and durations. Percent annexin V + cells were analyzed using Muse^TM cell analyzer. Error bars indicate SEM. n = 2. (C). Analysis of annexin V + ve and mitochondrial membrane depolarized cells. MDA-MB-231 cells were treated for 48 h at the indicated concentrations. Staurosporin (2.5 µM) was used as a positive control. Error bars indicate SEM. n = 2. * p < 0.05. […] These are best readings and their digits are not certain: DMSO 7 and 14; DJ4 1.25 μM 10 and 22; DJ4 2.5 μM 23 and 40; Staurosporin 12 and 40 / Panel B, 24 h: the ** is read as belonging to the 5 μM bar (10), not the 2.5 μM bar (8); this is not fully certain […]

CDK11 = experiment: KINOMEscan competition binding assay; design: species or system human; details: CDK11, 10 µM
Source text: To examine specificity of DJ4 to different human kinases, we performed a KINOMEscan profiling assay (DiscoverX, Fremont, CA, USA). The KINOMEscan assay consists of a panel of more than 480 kinases of different classes (TK/TKL/STE/CK1/AGC/CAMK/CMGC/others), including clinically relevant mutants, atypical kinases, lipid, and pathogen kinases. […] However, we also recognized the limitations of DJ4 that preclude its clinical development and the need for further optimization of the DJ4 chemotype.
The KINOMEscan®, in vitro competition binding assay, was performed by Lead Hunter Discovery Services (DiscoverX Corporation, Fremont, CA, USA) to determine the kinase specificity of DJ4, a novel kinase inhibitor [19, 44]. The KINOMEscan® panel consists of more than 480 kinases, including clinically relevant mutants, lipid, atypical, and pathogen kinases, plus a growing panel of activation-state specific assays. The primary screen was performed using a single concentration of 10 µM, and the results for DJ4 binding interactions are reported as percent of control (%Ctrl). The %Ctrl is calculated as follows: [(DJ4 signal-positive control signal)/(negative control DMSO signal-positive control signal)] x […]. The human kinome tree annotation for DJ4 is plotted with Reaction Biology’s Kinase Mapper and KinMap web interface tool http://kinhub.org/kinmap (accessed on 09 January 2023).

Structure (SMILES): O=C1N/C(=N\CCc2ccccc2)S/C1=C/c1c[nH]c2ncccc12 [DJ4]
- G2/M cell population (A549 lung cancer cells; 2.5 µM): 31%
- G2/M cell population (A549 lung cancer cells; 5 µM): 42%
- G2/M cell population (A549 lung cancer cells; 10 µM): 45%
- inhibition (KINOMEscan) (CDK11): more than 98%
